Structures are written as SMILES.

The target of the test is T1, Human PTP1B (1-321) (Homo sapiens, UniProt P18031).
T1 construct: Human PTP1B (1-321) was cloned from a human cDNA library; made in house; host or cells: E. coli
T1 sequence (P18031 1-321): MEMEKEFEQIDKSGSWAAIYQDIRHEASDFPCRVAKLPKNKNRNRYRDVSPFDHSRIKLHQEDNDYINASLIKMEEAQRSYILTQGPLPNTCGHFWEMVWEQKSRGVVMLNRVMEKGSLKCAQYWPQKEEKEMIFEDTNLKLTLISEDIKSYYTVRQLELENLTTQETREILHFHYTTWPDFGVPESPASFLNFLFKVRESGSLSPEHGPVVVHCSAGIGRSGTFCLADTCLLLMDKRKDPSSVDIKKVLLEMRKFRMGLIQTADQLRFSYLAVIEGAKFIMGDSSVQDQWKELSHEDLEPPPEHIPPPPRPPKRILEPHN
The test is described as follows: In vitro inhibition of PTP1B (PTPase assay, Malachite Green / DiFMUP). The class given is biochemical. The settings on record: read-out: IC50 (μM), PTP1B inhibitory activity. The protocol:
Human PTP1B (1-321) was cloned from a human cDNA library using conventional molecular biology techniques. The cDNA sequence was identical to the published human PTP1B sequence (Accession number M33689). The protein was expressed and purified from E. coli as described by Barford D. et.al, J. Mol Biol (1994) 239,726-730).
The measurement of PTPase activity was carried out using one of two methods:
The first method for the measurement of PTP1B inhibitory activity a tyrosine phosphorylated peptide based on the amino acid sequence of insulin receptor tyrosine autophosphorylation site 1146 (TRDI(pY)E) was used as substrate. The reaction conditions were as follows:
PTP1B (0.5-2nM ) was incubated with compound for 15 min in buffer containing 37.5 mM Bis-Tris buffer pH 6.2, 140 mMNaCl, 0.05% BSA and 2 mM DTT. The reaction was started by the addition of 50 μM substrate. After 20 min at room temperature (22-25° C.) the reaction was stopped with KOH and the amount of free phosphate measured using Malachite Green as previously described. (Harder et al. 1994 Biochem J. 298; 395).
The second method was used for the measurement of general PTPase inhibitory activity across a panel of PTPases the substrate (6,8-difluoro-4-methylumbelliferyl phosphate (DiFMUP; from Molecular Probes) was used at the Km for each enzyme. The buffer conditions were identical as in the Malachite Green assay. The reaction was stopped with KOH. In this case the dephosphoryated product becomes fluorescent and the fluorescence read. (Excitiation: […]/Emmission: 460 nM).
As usually defined, the IC50 is the concentration needed to halve the response being measured. Turning to `CCOc1cccc(-c2cc3nc(N)nc(N)c3c3cc[nH]c23)c1` [Example 2, 6-(3-Ethoxy-phenyl)-7H-pyrrolo[3,2-f]quinazoline-1,3-diamine], the IC50 stood at 23.8 µM. For `Nc1nc(N)c2c(cc(-c3cccc([N+](=O)[O-])c3)c3[nH]ccc32)n1` [Example 4, 6-(3-Nitro-phenyl)-7H-pyrrolo[3,2-f]quinazoline-1,3-diamine] the value was 89.5 µM; for `Nc1nc(N)c2c(cc(-c3ccc(Cl)s3)c3[nH]ccc32)n1` [Example 6, 6-(5-Chloro-thiophen-2-yl)-7H-pyrrolo[3,2-f]quinazoline-1,3-diamine], 29.2 µM. For `Nc1cccc(-c2cc3nc(N)nc(N)c3c3cc[nH]c23)c1` [Example 8, 6-(3-Amino-phenyl)-7H-pyrrolo[3,2-f]quinazoline-1,3-diamine] the value was 24.1 µM.
